The results in this text go back to patent US8003695B2 (Chroma Therapeutics Ltd., priority 2006, dated 2011).

Each structure is given as a SMILES string. Bounds are passed on as bounds.

One test addresses T1, IKBKB (IKKβ) (Homo sapiens, UniProt O14920).
T1 construct: purchased Invitrogen (Paisley, UK)
T1 sequence (O14920 1-756): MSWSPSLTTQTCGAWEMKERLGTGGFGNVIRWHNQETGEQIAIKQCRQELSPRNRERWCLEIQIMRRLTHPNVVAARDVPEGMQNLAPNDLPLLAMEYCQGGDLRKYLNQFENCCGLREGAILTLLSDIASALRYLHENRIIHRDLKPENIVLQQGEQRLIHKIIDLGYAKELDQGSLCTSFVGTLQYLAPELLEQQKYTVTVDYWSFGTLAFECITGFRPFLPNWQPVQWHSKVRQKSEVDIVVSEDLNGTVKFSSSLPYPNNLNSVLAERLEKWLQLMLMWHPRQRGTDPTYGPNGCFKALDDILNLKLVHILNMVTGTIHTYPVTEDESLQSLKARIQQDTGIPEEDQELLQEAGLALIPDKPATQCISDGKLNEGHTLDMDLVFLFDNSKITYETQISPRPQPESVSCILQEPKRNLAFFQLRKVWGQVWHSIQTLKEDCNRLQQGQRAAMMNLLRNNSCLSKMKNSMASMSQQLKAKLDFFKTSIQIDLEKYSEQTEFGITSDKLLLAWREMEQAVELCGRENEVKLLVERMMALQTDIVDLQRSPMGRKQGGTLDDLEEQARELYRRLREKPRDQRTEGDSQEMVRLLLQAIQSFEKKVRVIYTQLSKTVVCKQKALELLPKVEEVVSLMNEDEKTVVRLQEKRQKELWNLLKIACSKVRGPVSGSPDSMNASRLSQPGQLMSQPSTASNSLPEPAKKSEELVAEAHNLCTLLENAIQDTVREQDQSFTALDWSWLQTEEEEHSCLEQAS
The test is described as follows: IKKβ Enzyme Assay (Z'-LYTE, Invitrogen). The test is classed as biochemical. The conditions noted are these: ATP at or close to Km; read-out: Inhibitor activity versus IKKβ. As for the experimental part: The ability of compounds to inhibit IKKβ kinase activity was measured in an assay performed by Invitrogen (Paisley, UK). The Z′-LYTE™ biochemical assay employs a fluorescence-based, coupled-enzyme format and is based on the differential sensitivity of phosphorylated and non-phosphorylated peptides to proteolytic cleavage. The peptide substrate is labelled with two fluorophores—one at each end—that make up a FRET pair. In the primary reaction, the kinase transfers the gamma-phosphate of ATP to a single serine or threonine residue in a synthetic FRET-peptide. In the secondary reaction, a site-specific protease recognizes and cleaves non-phosphorylated FRET-peptides. Phosphorylation of FRET-peptides suppresses cleavage by the Development Reagent. Cleavage disrupts FRET between the donor (i.e., coumarin) and acceptor (i.e. fluorescein) fluorophores on the FRET-peptide, whereas uncleaved, phosphorylated FRET-peptides maintain FRET. A […] method, which calculates the ratio (the Emission Ratio) of donor emission to acceptor emission after excitation of the donor fluorophore at 400 nm, is used to quantitate reaction progress.
The final 10 μL Kinase Reaction consists of 0.9-8.0 ng IKBKB (IKKβ), 2 μM Ser/Thr 05 Peptide and ATP in 50 mM HEPES pH 7.5, 0.01% BRIJ-35, 10 mM MgCl2, 1 mM EGTA. The assay is performed at an ATP concentration at, or close to the Km. After the 60 minute Kinase Reaction incubation at room temperature, 5 μL of a 1:128 dilution of Development Reagent is added. The assay plate is incubated for a further 60 minutes at room temperature and read on a fluorescence plate reader.
Duplicate data points are generated from a ⅓ log dilution series of a stock solution of test compound in DMSO. Nine dilutions steps are made from a top concentration of 10 μM, and a ‘no compound’ blank is included. Data is collected and analysed using XLfit software from IDBS. The dose response curve is curve fitted to model number 205 (sigmoidal dose-response model). From the curve generated, the concentration giving 50% inhibition is determined and reported.

The next test relates to THP-1 cells. Description: LPS-Stimulation of THP-1 Cells, TNF-α release. The test is classed as cell-based. The conditions noted are these: Homo sapiens, LPS 1 μg/ml, 6 hrs, read-out: Inhibitor activity versus THP-1 TNFα release. As to the method: LPS-Stimulation of THP-1 Cells
THP-1 cells were plated in 100 μl at a density of 4×10^4 cells/well in V-bottomed 96 well tissue culture treated plates and incubated at 37° C. in 5% CO2 for 16 hrs. 2 hrs after the addition of the inhibitor in 100 μl of tissue culture media, the cells were stimulated with LPS (E. coli strain 005:85, Sigma) at a final concentration of 1 μg/ml and incubated at 37° C. in 5% CO2 for 6 hrs. TNF-α levels were measured from cell-free supernatants by sandwich ELISA (R&D Systems #QTA00B)

Consider `NC(=O)Nc1sc(-c2ccc(CN[C@@H](Cc3ccccc3)C(=O)OC3CCCC3)cc2)cc1C(N)=O` [Example 3, Cyclopentyl N-{-4-[4-carbamoyl-5-(carbamoylamino)-2-thienyl]benzyl}-L-phenylalaninate], for which the IC50 at IKBKB (IKKβ) and in the test on THP-1 cells was above 5000 nM throughout.

As for `NC(=O)Nc1sc(-c2ccc(CN[C@H](C(=O)OC3CCCC3)c3ccc4ccccc4c3)cc2)cc1C(N)=O` [Example 5, Cyclopentyl (2S)-({4-[4-carbamoyl-5-(carbamoylamino)-2-thienyl]benzyl}amino)(2-naphthyl)acetate], the IC50 on IKBKB (IKKβ) and with THP-1 cells was above 5000 nM in each case. For the molecule `CC(C)C[C@H](NCc1ccc(-c2cc(C(N)=O)c(NC(N)=O)s2)c(Cl)c1)C(=O)OC1CCCC1` [Example 6, Cyclopentyl N-{-4-[4-carbamoyl-5-(carbamoylamino)-2-thienyl]-3-chlorobenzyl}-L-leucinate], the IC50 on IKBKB (IKKβ) is below 1000 nM; in the test with THP-1 cells, above 5000 nM. In the same order, the values of `Cc1cc(-c2cc(C(N)=O)c(NC(N)=O)s2)ccc1CN[C@@H](CC(C)C)C(=O)OC1CCCC1` [Example 7, Cyclopentyl N-{-4-[4-carbamoyl-5-(carbamoylamino)-2-thienyl]-2-methylbenzyl}-L-leucinate] are below 1000 nM and 1000 to 5000 nM. For `CC(C)C[C@H](NCCc1ccc(-c2cc(C(N)=O)c(NC(N)=O)s2)cc1)C(=O)OC1CCCC1` [Example 16, Cyclopentyl N-(2-{4-[4-carbamoyl-5-(carbamoylamino)-2-thienyl]phenyl}ethyl)-L-leucinate], the IC50 at IKBKB (IKKβ) and with THP-1 cells was 1000 to 5000 nM in each case.

Take `CC(C)C[C@H](NCCc1ccc(-c2cc(C(N)=O)c(NC(N)=O)s2)c(Cl)c1)C(=O)OC1CCCC1` [Example 17, Cyclopentyl N-(2-{4-[4-carbamoyl-5-(carbamoylamino)-2-thienyl]-3-chlorophenyl}ethyl)-L-leucinate]: the IC50 was 1000 to 5000 nM at IKBKB (IKKβ) and above 5000 nM in the test on THP-1 cells. Taken in the same sequence, the figures for `CC(C)C[C@H](NCCCOc1ccc(-c2cc(C(N)=O)c(NC(N)=O)s2)cc1)C(=O)OC1CCCC1` [Example 25, Cyclopentyl N-(3-{4-[4-carbamoyl-5-(carbamoylamino)-2-thienyl]phenoxy}propyl)-L-leucinate] were 1000 to 5000 nM and 1000 to 5000 nM.

Take `CC(C)C[C@H](NCCCOc1ccc(-c2cc(C(N)=O)c(NC(N)=O)s2)c(Cl)c1)C(=O)OC1CCCC1` [Example 26, Cyclopentyl N-(3-{4-[4-carbamoyl-5-(carbamoylamino)-2-thienyl]-3-chlorophenoxy}propyl)-L-leucinate]: the IC50 on IKBKB (IKKβ) and in the test with THP-1 cells was 1000 to 5000 nM throughout. In the case of `CC(C)C[C@H](NCCCCCOc1ccc(-c2cc(C(N)=O)c(NC(N)=O)s2)cc1)C(=O)OC1CCCC1` [Example 27, Cyclopentyl N-(5-{4-[4-carbamoyl-5-(carbamoylamino)-2-thienyl]phenoxy}pentyl)-L-leucinate], the results for the IC50 on IKBKB (IKKβ) and with THP-1 cells were below 1000 nM and 1000 to 5000 nM, respectively. In the same order, the values of `CC(C)C[C@H](NCCCCCOc1ccc(-c2cc(C(N)=O)c(NC(N)=O)s2)c(Cl)c1)C(=O)OC1CCCC1` [Example 28, Cyclopentyl N-(5-{4-[4-carbamoyl-5-(carbamoylamino)-2-thienyl]-3-chlorophenoxy}pentyl)-L-leucinate] are above 5000 nM and 1000 to 5000 nM. In the same order, the values of `Cc1cc(-c2cc(C(N)=O)c(NC(N)=O)s2)ccc1/C=C/CN[C@@H](CC(C)C)C(=O)OC1CCCC1` [Example 30, Cyclopentyl N-[(2E)-3-{4-[4-carbamoyl-5-(carbamoylamino)thiophen-2-yl]-2-methylphenyl}prop-2-en-1-yl]-L-leucinate] are 1000 to 5000 nM and 1000 to 5000 nM.

On to `CC(C)C[C@H](NC/C=C/c1ccc(-c2cc(C(N)=O)c(NC(N)=O)s2)c(F)c1)C(=O)OC1CCCC1` [Example 34, Cyclopentyl N-[(2E)-3-{4-[4-carbamoyl-5-(carbamoylamino)thiophen-2-yl]-3-fluorophenyl}prop-2-en-1-yl]-L-leucinate], for which the IC50 was below 1000 nM at IKBKB (IKKβ) and 1000 to 5000 nM in the test on THP-1 cells. In the same order, the values of `CC(C)C[C@H](NC/C=C/c1ccc(-c2cc(C(N)=O)c(NC(N)=O)s2)c(Cl)c1)C(=O)OC1CCCC1` [Example 35, Cyclopentyl N-[(2E)-3-{4-[4-carbamoyl-5-(carbamoylamino)thiophen-2-yl]-3-chlorophenyl}prop-2-en-1-yl]-L-leucinate] are 1000 to 5000 nM and 1000 to 5000 nM. As to `CC(C)C[C@H](NC/C=C/c1ccc(-c2cc(C(N)=O)c(NC(N)=O)s2)c(C(F)(F)F)c1)C(=O)O` [Example 79, N-[(2E)-3-{4-[4-carbamoyl-5-(carbamoylamino)thiophen-2-yl]-3-(trifluoromethyl)phenyl}prop-2-en-1-yl]-L-leucine], the IC50 on IKBKB (IKKβ) lay in the range of 1000 to 5000 nM. Same read-out and setting: next, `Cc1cc(-c2cc(C(N)=O)c(NC(N)=O)s2)cc(C)c1/C=C/CN[C@@H](CC(C)C)C(=O)O` [Example 80]: below 1000 nM; `NC(=O)Nc1sc(-c2ccc(/C=C/CN[C@H](C(=O)O)c3ccccc3)cc2)cc1C(N)=O` [Example 81, (2S)-{[(2E)-3-{4-[4-carbamoyl-5-(carbamoylamino)-2-thienyl]phenyl}prop-2-en-1-yl]amino}(phenyl)acetic acid]: below 1000 nM. Still for that read-out and setting: next, `CC(C)(C)OC[C@H](NC/C=C/c1ccc(-c2cc(C(N)=O)c(NC(N)=O)s2)cc1)C(=O)O` [Example 82, O-tert-butyl-N-[(2E)-3-{4-[4-carbamoyl-5-(carbamoylamino)thiophen-2-yl]phenyl}prop-2-en-1-yl]-L-serine]: below 1000 nM; `NC(=O)Nc1sc(-c2ccc(/C=C/CN[C@H](C(=O)O)C3CCCCC3)cc2)cc1C(N)=O` [Example 83, (2S)-{[(2E)-3-{4-[4-carbamoyl-5-(carbamoylamino)thiophen-2-yl]phenyl}prop-2-en-1-yl]amino}(cyclohexyl)ethanoic acid]: below 1000 nM.

On to `CC(C)C[C@@H](NC/C=C/c1ccc(-c2cc(C(N)=O)c(NC(N)=O)s2)cc1)C(=O)O` [Example 84, N-[(2E)-3-{4-[4-carbamoyl-5-(carbamoylamino)-2-thienyl]phenyl}prop-2-en-1-yl]-D-leucine], for which the IC50 at IKBKB (IKKβ) was below 1000 nM. On the same count and under the same terms, the figure for `CC(C)C[C@H](NCCc1cccc(-c2cc(C(N)=O)c(NC(N)=O)s2)c1)C(=O)O` [Example 87, N-(2-{3-[4-carbamoyl-5-(carbamoylamino)-2-thienyl]phenyl}ethyl)-L-leucine] is below 1000 nM; for `CC(C)C[C@H](NCCc1cc(-c2cc(C(N)=O)c(NC(N)=O)s2)ccc1F)C(=O)O` [Example 90, N-(2-{5-[4-carbamoyl-5-(carbamoylamino)thiophen-2-yl]-2-fluorophenyl}ethyl)-L-leucine] it is below 1000 nM. The same measure, in the same setting: the figure for `CC(C)C[C@H](NC/C=C/c1cccc(-c2cc(C(N)=O)c(NC(N)=O)s2)c1)C(=O)O` [Example 93, N-[(2E)-3-{3-[4-carbamoyl-5-(carbamoylamino)-2-thienyl]phenyl}prop-2-en-1-yl]-L-leucine] is below 1000 nM.
